Measurements published in ChEMBL document CHEMBL1135095, “3-D QSAR studies on new dibenzyltin(IV) anticancer agents by comparative molecular field analysis (CoMFA)” (Bioorg Med Chem Lett, 2002).

Experiments:
[1] = organism: Mus musculus; assay: Lethal dose in swiss albino mice by peroral route; type: toxicity, organism-based; conditions: in vivo, po
[2] = test system: IGROV-1; assay: In vitro antitumor activity against IGROV human cancer cell line; type: functional, cell-based
[3] = test system: WiDr; assay: In vitro antitumor activity against WIDR human cancer cell line; type: functional, cell-based
[4] = test system: SK-MEL19; assay: In vitro antitumor activity against MEL 19 human cancer cell line; type: functional, cell-based

| Sequence | LD50 [1] [mg/kg] | ID50 [2] [µM] | ID50 [3] [µM] | ID50 [4] [µM] |
| --- | --- | --- | --- | --- |
| CARBOPLATIN [listing 1 of 2 here] | 150 |  |  |  |
| CARBOPLATIN [listing 2 of 2 here] |  | 646 | 943 | 1480 |
| CISPLATIN [listing 1 of 2 here] | 31 |  |  |  |
| CISPLATIN [listing 2 of 2 here] |  | 75 | 450 | 260 |
